Data taken from paper PMC4506530, “Small-Molecule Inhibitors That Target Protein–Protein Interactions in the RAD51 Family of Recombinases” (Chemmedchem, 2014).
Entries after “also recorded” stand apart in the source; their conditions may differ. Read-outs that look alike come from different tables or passages of the source.

Legend:
[1] = target: T1, HumRADA2 (Pyrococcus furiosus, UniProt O74036, D220A/DEL288-314/E219S/I169M/K221M/V202Y/Y201A); conditions: previously published fragment screening, humanised RadA, cited from earlier work
[2] = target: T1, HumRADA2; assay: Isothermal titration calorimetry (ITC), direct binding to HumRADA2; conditions: for -TDS / DG / DH: ITC thermodynamic binding profile, Table S1; for LLE: LLE=pKD−clog P, clog P calculated with Instant JChem (ChemAxon)
Source text: We previously published fragment-screening results using a humanised RAD51 surrogate from Pyrococcus furiosus, which we refer to as HumRADA2 (previously referred to as MAYSAM RadA).[23] In this surrogate protein, the N-terminal domain with the oligomerisation sequence was removed to monomerise the protein and expose the FxxA binding site for screening, and six surface residues were mutated around the Phe pocket in order to humanise the protein in this region.
(§1) Supplemental Experimental Procedures
(§2) C-terminal ATPase domain of P. furiosus RadA (residues 108–349, with deletion of the “L2” loop residues 288–314) was expressed in E.coli and purified as described before using ion-exchange ad size exclusion chromatographies.[1] Purified protein was concentrated to 0.5 mM, flash frozen in liquid nitrogen and stored at -80C. Protein concentration was determined by measuring absorbance at 280 nm in 6M GndHCl and using calculated absorption coefficient […]
(§3) Isothermal Titration Calorimetry
(§4) ITC experiments were performed at 25°C on a MicroCal ITC-200 (GE Healthcare).
(§5) HumRadA2 (humanized RadA) (600 µM in 20 mM MES pH 6.0 with 100 mM NaCl and 0.5 mM EDTA was diluted with Tris buffer (200 mM, pH 7.5 with 100 mM NaCl), and DMSO was added to match to the ligand solution. In titrations with ATP, 5 mM MgCl2 was included in the ligand buffer and the protein buffer. Compounds in DMSO were diluted into the same Tris buffer to give a final concentration of 0.6–10 mM ligand in 10% DMSO and Tris buffer. Care was taken to ensure that the DMSO concentrations in the protein and ligand solutions were well matched so as to avoid artefacts arising from heats of dilution of DMSO. In a typical experiment, protein (60 µM) was loaded in the sample cell, and 16 injections (2.4 µL) of 4.8 s duration were made at 80 s intervals from a syringe loaded with ligand (0.6–10 mM) and rotating at 1000 rpm. In all titrations, an initial injection of ligand (0.4 µL) was made and discarded during data analysis. Control titrations of ligand to buffer were performed and […]
(§6) The thermodynamic parameters were obtained by fitting the data to a single-site-binding model by using Origin software and fixing the stoichiometry as 1.0 for […]

[3] = target: T1, HumRADA2; assay: Competitive ITC experiments to HumRADA2 (ligand titrated in the presence of compound); type: binding; conditions: protein pre-incubated with compound (200 μM 5 c)
Experimental: The KD measurement of each ligand was then repeated, but in the presence of 200 μM 5 c (bottom row titrations, Figure 2 B).
as §1, §2, §3, §4, §5, §6

[4] = system: wild-type RadA; assay: ITC, direct binding to unhumanised wild-type RadA; parameters: species or system Pyrococcus furiosus; conditions: unhumanised wild-type RadA protein
[5] = tryptophan ester series (Table 1)
[6] = substituted tryptamine series (Table 2)

Compound | Kd ([1]; read-out: KD) [µM] | Kd [2] [µM] | -TDS [2] [kcal/mol] | DG [2] [kcal/mol] | DH [2] [kcal/mol] | LLE [2, 5] | LE (ligand efficiency) [2, 5] [kcal mol−1 per heavy atom] | competition with binding of the RadA self-oligomerisation peptide [3] | Kd [1] [µM] | further results
COC(=O)c1cccc2[nH]ccc12 [4-methyl ester indole] | 1300 | – | – | – | – | – | – | – | – | –
Cl.N[C@@H](Cc1c[nH]c2ccccc12)C(=O)OCCc1ccccc1 [5 c] | – | 35 ± 4 | -3.3 | -6.0 | -2.7 | 1.1 | 0.26 | competes with and blocks the binding; also recorded: shows competition with the FxxA binding site | – | competition with binding of Ac-FHTA-NH2 tetrapeptide [3]: competes with and blocks the binding; also recorded: shows competition with the FxxA binding site; effect on binding of ATP [3]: not affected; also recorded: not the ATP binding site; binding to wild-type RadA [4]: no binding
O=S(=O)(NCCc1c[nH]c2ccccc12)c1cc(Br)c(Cl)s1 [7 m] | – | 1.3 ± 0.1 | -2.7 | -8.1 | -5.4 | – | – | blockage of the binding | – | LLE [2, 6]: 1.5; LE (ligand efficiency) [2, 6]: 0.36 kcal mol−1 per heavy atom
COC(=O)[C@@H](N)Cc1c[nH]c2ccccc12 [compound 1, L-tryptophan methyl ester] | – | – | 2.0 | -4.4 | -6.4 | 1.9 | 0.28 | – | 570 | –
c1ccc2[nH]ncc2c1 [indazole] | – | – | – | – | – | – | – | – | 1000 | –
Ac-FHTA-NH2 [reference compound] | 250 | – | – | – | – | – | – | – | – | Kd ([2]; ITC against apo protein, in the absence of 5 c, read-out: KD): 250 µM
